Experimental data from ChEMBL document CHEMBL1151433, “National and regional assessment of antimicrobial resistance among community-acquired respiratory tract pathogens identified in a 2005-2006 U.S. Faropenem surveillance study” (2007).
Converted amounts (≈) assume the structure as drawn.

How the values were obtained:
Haemophilus influenzae [1] = experiment: Antibacterial activity against beta lactamase-negative Haemophilus influenzae […] isolated from respiratory tract infected patients after 20 to 24 hrs by broth microdilution method; type: functional; conditions: ATCC 49247
Streptococcus pneumoniae [2] = experiment: Antibacterial activity against Streptococcus pneumoniae ATCC 49619 isolated from respiratory tract infected patients assessed as susceptible isolates after 20 to 24 hrs by broth microdilution method; type: functional
Streptococcus pneumoniae [3] = experiment: Antibacterial activity against penicillin-intermediate Streptococcus pneumoniae ATCC 49619 isolated from respiratory tract infected patients assessed as susceptible isolates after 20 to 24 hrs by broth microdilution method; type: functional
Haemophilus influenzae [4] = experiment: Antibacterial activity against beta lactamase-positive Haemophilus influenzae […] isolated from respiratory tract infected patients assessed as susceptible isolates after 20 to 24 hrs by broth microdilution method; type: functional, ATCC 49247
Haemophilus influenzae [5] = experiment: Antibacterial activity against beta lactamase-positive Haemophilus influenzae […] isolated from respiratory tract infected patients after 20 to 24 hrs by broth microdilution method; type: functional; conditions: ATCC 49247
Streptococcus pneumoniae [6] = experiment: Antibacterial activity against Streptococcus pneumoniae ATCC 49619 isolated from respiratory tract infected patients after 20 to 24 hrs by broth microdilution method; type: functional
Streptococcus pneumoniae [7] = experiment: Antibacterial activity against penicillin-intermediate Streptococcus pneumoniae ATCC 49619 isolated from respiratory tract infected patients assessed as resistant isolates after 20 to 24 hrs by broth microdilution method; type: functional
Haemophilus influenzae [8] = experiment: Antibacterial activity against beta lactamase-positive Haemophilus influenzae […] isolated from respiratory tract infected patients assessed as resistant isolates after 20 to 24 hrs by broth microdilution method; type: functional, ATCC 49247
Streptococcus pneumoniae [9] = experiment: Antibacterial activity against penicillin-resistant Streptococcus pneumoniae ATCC 49619 isolated from respiratory tract infected patients assessed as resistant isolates after 20 to 24 hrs by broth microdilution method; type: functional
Streptococcus pneumoniae [10] = experiment: Antibacterial activity against penicillin-intermediate Streptococcus pneumoniae ATCC 49619 isolated from respiratory tract infected patients after 20 to 24 hrs by broth microdilution method; type: functional
Streptococcus pneumoniae [11] = experiment: Antibacterial activity against penicillin-susceptible Streptococcus pneumoniae ATCC 49619 isolated from respiratory tract infected patients assessed as susceptible isolates after 20 to 24 hrs by broth microdilution method; type: functional
Haemophilus influenzae [12] = experiment: Antibacterial activity against beta lactamase-negative Haemophilus influenzae […] isolated from respiratory tract infected patients assessed as resistant isolates after 20 to 24 hrs by broth microdilution method; type: functional, ATCC 49247
Streptococcus pneumoniae [13] = experiment: Antibacterial activity against penicillin-susceptible Streptococcus pneumoniae ATCC 49619 isolated from respiratory tract infected patients assessed as resistant isolates after 20 to 24 hrs by broth microdilution method; type: functional
Streptococcus pneumoniae [14] = experiment: Antibacterial activity against penicillin-susceptible Streptococcus pneumoniae ATCC 49619 isolated from respiratory tract infected patients after 20 to 24 hrs by broth microdilution method; type: functional
Haemophilus influenzae [15] = experiment: Antibacterial activity against Haemophilus influenzae […] isolated from respiratory tract infected patients after 20 to 24 hrs by broth microdilution method; type: functional; conditions: ATCC 49247
Streptococcus pneumoniae [16] = experiment: Antibacterial activity against penicillin-resistant Streptococcus pneumoniae ATCC 49619 isolated from respiratory tract infected patients after 20 to 24 hrs by broth microdilution method; type: functional
Haemophilus influenzae [17] = experiment: Antibacterial activity against Haemophilus influenzae […] isolated from respiratory tract infected patients assessed as susceptible isolates after 20 to 24 hrs by broth microdilution method; type: functional, ATCC 49247
Haemophilus influenzae [18] = experiment: Antibacterial activity against beta lactamase-negative Haemophilus influenzae […] isolated from respiratory tract infected patients assessed as susceptible isolates after 20 to 24 hrs by broth microdilution method; type: functional
Moraxella catarrhalis = experiment: Antibacterial activity against Moraxella catarrhalis isolated from respiratory tract infected patients after 20 to 24 hrs by broth microdilution method; type: functional
Streptococcus pneumoniae [19] = experiment: Antibacterial activity against Streptococcus pneumoniae ATCC 49619 isolated from respiratory tract infected patients assessed as resistant isolates after 20 to 24 hrs by broth microdilution method; type: functional
Haemophilus influenzae [20] = experiment: Antibacterial activity against Haemophilus influenzae […] isolated from respiratory tract infected patients assessed as resistant isolates after 20 to 24 hrs by broth microdilution method; type: functional, ATCC 49247
Streptococcus pneumoniae [21] = experiment: Antibacterial activity against penicillin-resistant Streptococcus pneumoniae ATCC 49619 isolated from respiratory tract infected patients assessed as susceptible isolates after 20 to 24 hrs by broth microdilution method; type: functional

| SMILES | MIC50 (Haemophilus influenzae [1]) | MIC90 (Haemophilus influenzae [1]) | Activity (Streptococcus pneumoniae [2]) | Activity (Streptococcus pneumoniae [3]) | Activity (Haemophilus influenzae [4]) | MIC50 (Haemophilus influenzae [5]) | MIC90 (Haemophilus influenzae [5]) | MIC50 (Streptococcus pneumoniae [6]) | MIC90 (Streptococcus pneumoniae [6]) | Activity (Streptococcus pneumoniae [7]) | Activity (Haemophilus influenzae [8]) | Activity (Streptococcus pneumoniae [9]) | MIC50 (Streptococcus pneumoniae [10]) | MIC90 (Streptococcus pneumoniae [10]) | Activity (Streptococcus pneumoniae [11]) | Activity (Haemophilus influenzae [12]) | Activity (Streptococcus pneumoniae [13]) | MIC50 (Streptococcus pneumoniae [14]) | MIC90 (Streptococcus pneumoniae [14]) | MIC50 (Haemophilus influenzae [15]) | further results |
| --- | --- | --- | --- | --- | --- | --- | --- | --- | --- | --- | --- | --- | --- | --- | --- | --- | --- | --- | --- | --- | --- |
| CC[C@H]1OC(=O)[C@H](C)C(=O)[C@H](C)[C@@H](O[C@@H]2O[C@H](C)C[C@H](N(C)C)[C@H]2O)[C@](C)(OC)C[C@@H](C)C(=O)[C@H](C)[C@H]2N(CCCCn3cnc(-c4cccnc4)c3)C(=O)O[C@]12C [TELITHROMYCIN] | 2 µg/mL (≈ 2.46 µM) | 4 µg/mL (≈ 4.93 µM) | 99.4% | 100% | 97% | 2 µg/mL (≈ 2.46 µM) | 4 µg/mL (≈ 4.93 µM) | ≤ 0.12 µg/mL | 0.5 µg/mL (≈ 0.616 µM) | 0% | 0.8% | 0% | ≤ 0.12 µg/mL | 0.5 µg/mL (≈ 0.616 µM) | 99.8% | 0.7% | 0.1% | ≤ 0.12 µg/mL | ≤ 0.12 µg/mL | 2 µg/mL (≈ 2.46 µM) | MIC90 (Haemophilus influenzae [15]): 4 µg/mL (≈ 4.93 µM); MIC50 (Streptococcus pneumoniae [16]): 0.5 µg/mL (≈ 0.616 µM); MIC90 (Streptococcus pneumoniae [16]): 1 µg/mL (≈ 1.23 µM); Activity (Haemophilus influenzae [17]): 96.4%; Activity (Haemophilus influenzae [18]): 96.1%; MIC50 (Moraxella catarrhalis): ≤ 0.12 µg/mL; MIC90 (Moraxella catarrhalis): ≤ 0.12 µg/mL; Activity (Streptococcus pneumoniae [19]): 0.1%; Activity (Haemophilus influenzae [20]): 0.7%; Activity (Streptococcus pneumoniae [21]): 97.2% |
| CO/N=C(\C(=O)N[C@@H]1C(=O)N2C(C(=O)O)=C(COC(N)=O)CS[C@H]12)c1ccco1 [CEFUROXIME] | 1 µg/mL (≈ 2.36 µM) | 2 µg/mL (≈ 4.71 µM) | 78.2% | 74% | 96.3% | 1 µg/mL (≈ 2.36 µM) | 2 µg/mL (≈ 4.71 µM) | ≤ 0.5 µg/mL | 8 µg/mL (≈ 18.9 µM) | 12.7% | 0.7% | 99.2% | ≤ 0.5 µg/mL | 4 µg/mL (≈ 9.43 µM) | 99.9% | 0.2% | 0% | ≤ 0.5 µg/mL | ≤ 0.5 µg/mL | 1 µg/mL (≈ 2.36 µM) | MIC90 (Haemophilus influenzae [15]): 2 µg/mL (≈ 4.71 µM); MIC50 (Streptococcus pneumoniae [16]): 8 µg/mL (≈ 18.9 µM); MIC90 (Streptococcus pneumoniae [16]): 16 µg/mL (≈ 37.7 µM); Activity (Haemophilus influenzae [17]): 97.6%; Activity (Haemophilus influenzae [18]): 98%; MIC50 (Moraxella catarrhalis): 1 µg/mL (≈ 2.36 µM); MIC90 (Moraxella catarrhalis): 2 µg/mL (≈ 4.71 µM); Activity (Streptococcus pneumoniae [19]): 18.7%; Activity (Haemophilus influenzae [20]): 0.3%; Activity (Streptococcus pneumoniae [21]): 0% |
